From US20140088124A1, “IMIDAZOLE DERIVATIVES” (priority 2011, published 2014)

target: T1, human DGAT1 (Homo sapiens, UniProt O75907); experiment: DGAT1 CPM Assay; type: biochemical; conditions: human DGAT1, CPM fluorescence, 1 hour incubation at room temperature
T1 sequence (O75907 1-488): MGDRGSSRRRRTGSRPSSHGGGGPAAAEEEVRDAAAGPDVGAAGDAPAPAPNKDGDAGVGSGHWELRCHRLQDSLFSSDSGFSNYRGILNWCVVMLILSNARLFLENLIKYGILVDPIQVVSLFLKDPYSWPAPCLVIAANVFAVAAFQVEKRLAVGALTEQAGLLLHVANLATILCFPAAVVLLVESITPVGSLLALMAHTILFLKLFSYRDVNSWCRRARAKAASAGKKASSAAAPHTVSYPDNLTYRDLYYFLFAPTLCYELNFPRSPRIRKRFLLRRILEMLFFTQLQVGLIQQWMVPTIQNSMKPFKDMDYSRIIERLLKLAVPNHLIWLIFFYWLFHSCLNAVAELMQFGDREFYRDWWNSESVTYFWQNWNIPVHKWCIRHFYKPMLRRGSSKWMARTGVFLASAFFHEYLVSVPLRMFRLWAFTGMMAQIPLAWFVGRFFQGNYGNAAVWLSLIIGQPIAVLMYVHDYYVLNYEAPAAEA
Description: 20 uL of 90 uM CPM reagent in 90% ethanol was added after 1 hour incubation at room temperature.

| IC50 | SMILES |
| --- | --- |
| 4 nM | C[C@]1(C(=O)O)CC[C@@H](OC2CCN(c3ccc(-c4nc5ccc(C(F)(F)F)cc5[nH]4)cn3)CC2)CC1 [Example 98, cis-1-methyl-4-[(1-{5-[6-(trifluoromethyl)-1H-benzimidazol-2-yl]pyridin-2-yl}piperidin-4-yl)oxy]cyclohexanecarboxylic acid] |
| 56 nM | O=C(O)CC1CC(OC2CCN(c3ccc(-c4nc5cc(F)ccc5[nH]4)cn3)CC2)C1 (stereo not shown) [Example 53] |
| 277 nM | N#Cc1ccc2[nH]c(-c3ccc(N4CCC(OC5CC(C(=O)O)(C(=O)O)C5)CC4)nc3)nc2c1 [Example 96] |
| 4 nM | O=C(O)C[C@H]1CC[C@H](OC2CCN(c3ccc(-c4nc5cc(F)c(F)cc5[nH]4)cn3)CC2)CC1 [Example 16, [trans-4-({1-[5-(5,6-difluoro-1H-benzimidazol-2-yl)pyridin-2-yl]piperidin-4-yl}oxy)cyclohexyl]acetic acid] |
| 16 nM | O=C(O)C[C@H]1CC[C@H](OC2CCN(c3ccc(-c4nc5nc(C(F)(F)F)ccc5[nH]4)cn3)CC2)CC1 [Example 23] |
| 17 nM | CCOC(=O)[C@H]1CC[C@@H](OC2CCN(c3ccc(-c4nc5cc(F)ccc5[nH]4)cn3)CC2)CC1 [Example 77] |
| 2 nM | O=C(O)[C@H]1[C@@H]2C[C@H](OC3CCN(c4ccc(-c5nc6cc(C(F)(F)F)ccc6[nH]5)cn4)CC3)C[C@@H]21 [Example 133, (1R,3R,5S,6r)-3-[(1-{5-[5-(trifluoromethyl)-1H-benzimidazol-2-yl]pyridin-2-yl}piperidin-4-yl)oxy]bicyclo[3.1.0]hexane-6-carboxylic acid] |
| 2 nM | O=C(O)C[C@H]1CC[C@H](OC2CCN(c3ccc(-c4nc5cc(F)c(F)c(Br)c5[nH]4)cn3)CC2)CC1 [Example 15] |
| 5 nM | O=C1CN([C@H]2CC[C@H](OC3CCN(c4ccc(-c5nc6cc(C(F)(F)F)ccc6[nH]5)cn4)CC3)CC2)S(=O)(=O)N1 [Example 118] |
| 17 nM | CC(C)S(=O)(=O)NC(=O)[C@H]1CC[C@H](OC2CCN(c3ccc(-c4nc5cc(F)ccc5[nH]4)cn3)CC2)CC1 [Example 81] |
| 140 nM | COc1ccc2[nH]c(-c3ccc(N4CCC(OCC(C)(C)C(=O)O)CC4)nc3)nc2n1 [Example 66] |
| 6 nM | O=C(O)C[C@H]1CC[C@H](OC2CCN(c3ccc(-c4nc5ccc(F)cc5[nH]4)cn3)CC2)CC1 [Example 1, [trans-4-({1-[5-(6-fluoro-1H-benzimidazol-2-yl)pyridin-2-yl]piperidin-4-yl}oxy)cyclohexyl]acetic acid] |
| 64 nM | O[C@@H]1CO[C@H]2[C@@H]1OC[C@@H]2OC1CCN(c2ccc(-c3nc4cc(F)ccc4[nH]3)cn2)CC1 [Example 125] |
| 125 nM | C[C@]1(C(=O)O)CC[C@@H](OC2CCN(c3ccc(-c4nc5ncc(Cl)cc5[nH]4)cn3)CC2)CC1 [Example 108] |
| 89 nM | COc1ccc2nc(-c3ccc(N4CCC(OCC5(C(=O)O)CCC5)CC4)nc3)[nH]c2n1 [Example 44] |
| 6 nM | O=C(O)[C@H]1CC[C@@H](OC2CCN(c3ccc(-c4nc5cc(F)ccc5[nH]4)cn3)CC2)CC1 [Example 78] |
| 4 nM | O=C(O)c1cccc(COC2CCN(c3ccc(-c4nc5cc(C(F)(F)F)ccc5[nH]4)cn3)CC2)c1 [Example 117] |
| 45 nM | O=C(O)C[C@H]1CC[C@H](O[C@H]2CCN(c3ccc(-c4nc5cc(F)ccc5[nH]4)cn3)C2)CC1 [Example 138] |

| IC50 | SMILES |
| --- | --- |
| 25 nM | O=C(NS(=O)(=O)c1ccccn1)[C@H]1CC[C@H](OC2CCN(c3ccc(-c4nc5cc(F)ccc5[nH]4)cn3)CC2)CC1 [Example 84] |
| 7900 nM | Cc1nc(N2CCC(O[C@H]3CC[C@H](CC(=O)O)CC3)CC2)ccc1-c1nc2ccccc2[nH]1 [Example 10] |
| 118 nM | CC(C)(COC1CCN(c2ccc(-c3nc4cc(Cl)cnc4[nH]3)cn2)CC1)C(=O)O [Example 63] |
| 520 nM | COC(=O)c1cccc(OC2CCN(c3ccc(-c4nc5cc(C(F)(F)F)ccc5[nH]4)cn3)CC2)c1 [Example 113, Methyl 3-[(1-{5-[5-(trifluoromethyl)-1H-benzimidazol-2-yl]pyridin-2-yl}piperidin-4-yl)oxy]benzoate] |
| 7 nM | O=C(NS(=O)(=O)C(F)(F)F)[C@H]1CC[C@H](OC2CCN(c3ccc(-c4nc5cc(F)ccc5[nH]4)cn3)CC2)CC1 [Example 91] |
| 23 nM | CC1(S(=O)(=O)NC(=O)[C@H]2CC[C@H](OC3CCN(c4ccc(-c5nc6cc(F)ccc6[nH]5)cn4)CC3)CC2)CC1 [Example 80, trans-4-({1-[5-(5-fluoro-1H-benzimidazol-2-yl)pyridin-2-yl]piperidin-4-yl}oxy)-N-[(1-methylcyclopropyl)sulfonyl]cyclohexanecarboxamide] |
| 349 nM | Cc1cc(N2CCC(O[C@H]3CC[C@H](CC(=O)O)CC3)CC2)ncc1-c1nc2ccccc2[nH]1 [Example 12] |
| 10 nM | O=C1CN([C@H]2CC[C@@H](OC3CCN(c4ccc(-c5nc6cc(F)c(F)cc6[nH]5)cn4)CC3)CC2)S(=O)(=O)N1 [Example 122] |
| 147 nM | Cc1cc(N2CCC(O[C@H]3CC[C@@H](CC(=O)O)CC3)CC2)ncc1-c1nc2ccccc2[nH]1 [Example 13] |
| 13 nM | O=C(O)C[C@H]1CC[C@@H](OC2CCN(c3ccc(-c4nc5nc(C(F)(F)F)ccc5[nH]4)cn3)CC2)CC1 [Example 27] |
| 21 nM | C[C@]1(C(=O)O)CC[C@@H](OC2CCN(c3ccc(-c4nc5cc(F)ccc5[nH]4)cn3)CC2)CC1 [Example 111] |
| 4 nM | CCCCc1ccc2nc(-c3ccc(N4CCC(O[C@H]5CC[C@@H](CC(=O)O)CC5)CC4)nc3)[nH]c2c1 [Example 24, [cis-4-({1-[5-(6-butyl-1H-benzimidazol-2-yl)pyridin-2-yl]piperidin-4-yl}oxy)cyclohexyl]acetic acid] |
| 8 nM | O=C(O)C[C@H]1CC[C@@H](OC2CCN(c3ccc(-c4nc5ccc(F)cc5[nH]4)cn3)CC2)CC1 [Example 2, [cis-4-({1-[5-(6-fluoro-1H-benzimidazol-2-yl)pyridin-2-yl]piperidin-4-yl}oxy)cyclohexyl]acetic acid] |
| 2 nM | O=C(O)[C@H]1CC[C@@H](OC2CCN(c3ccc(-c4nc5cc(C(F)(F)F)ccc5[nH]4)cn3)CC2)CC1 [Example 68, cis-4-[(1-{5-[5-(trifluoromethyl)-1H-benzimidazol-2-yl]pyridin-2-yl}piperidin-4-yl)oxy]cyclohexanecarboxylic acid] |
| 5000 nM | O=C(O)C[C@H]1CC[C@@H](O[C@@H]2CC3C[C@H]2CN3c2ccc(-c3nc4cc(F)ccc4[nH]3)cn2)CC1 (single isomer, unassigned; enantiomer 2) [Example 29, [cis-4-({2-[5-(5-fluoro-1H-benzimidazol-2-yl)pyridin-2-yl]-2-azabicyclo[2.2.1]hept-5-yl}oxy)cyclohexyl]acetic acid enantiomer 2] |
| 7 nM | O=C(O)C1(COC2CCN(c3ccc(-c4nc5ccc(C(F)(F)F)cc5[nH]4)cn3)CC2)CCOCC1 [Example 45] |
| 147 nM | O=C(O)C1(C(=O)O)CC(OC2CCN(c3ccc(-c4nc5ccccc5[nH]4)cn3)CC2)C1 [Example 92] |
| 19 nM | CS(=O)(=O)NC(=O)[C@H]1CC[C@H](OC2CCN(c3ccc(-c4nc5cc(F)ccc5[nH]4)cn3)CC2)CC1 [Example 86] |

| SMILES | IC50 |
| --- | --- |
| O=C(O)C[C@H]1CC[C@@H](OC2CCN(c3ccc(-c4nc5cc(Cl)ccc5[nH]4)cn3)CC2)CC1 [Example 26] | 3 nM |
